# Literature values as cited in patent publication US20020013320A1, “Use of growth hormone secretagogues to treat systemic lupus erythematosus and inflammatory bowel disease” (priority 2000, published 2002).
# Where a SMILES comes first, the peptide text is derived from it. [ ]: non-standard residue; d: D form. d2Nal = N[C@H](Cc1ccc2ccccc2c1)C(=O)O; Aib = CC(C)(N)C(=O)O
# Experiments:
# [1] = adult female rats
# [2] = canines during remobilization
# [3] = oral treatment, obese young males
Compound,bone mass [1],levels of serum insulin-like growth factor-1 [2],size and strength of the quadriceps muscle [2],markers of bone formation and bone resorption [3]
GHRP-6,have the capacity to increase bone mass,–,–,–
CC(C)(N)C(=O)N[C@@H](Cc1c[nH]cn1)C(=O)N[C@H](Cc1ccc2ccccc2c1)C(=O)N[C@H](Cc1ccccc1)C(=O)N[C@@H](CCCCN)C(N)=O [Ipamorelin] (H-[Aib]H[d2Nal][dF]K-NH2),have the capacity to increase bone mass,–,–,–
CC(C)(N)C(=O)N[C@H](COCc1ccccc1)C(=O)N1CCC2(CC1)CN(S(C)(=O)=O)c1ccccc12 [MK-0677],–,elevated,increased,increases
